Reference: patent US20200188388A1, “METHODS AND COMPOSITIONS FOR PO[…] DRUGS AND REDUCING THEIR SIDE EFFECTS” (RVX THERAPEUTICS LTD., priority 2016, published 2020)

Columns and labels:
[1] = test system: Wistar rats; assay: Open field test, hypokinetic (sedative) or hyperkinetic action (analgesia examples)
Method: (§1) To evaluate the hypokinetic (sedative) or hyperkinetic action effects of tested drugs an “open field” (OF) test was applied. In the OF test, the locomotive activity of rats is determined. Animals were placed in the center of square of the illuminated field (1 meter×1 meter) for 3 minutes and the mobility time was recorded in seconds (horizontal activity). […] To quantify the locomotive activity for each dose of test drug(s) an average horizontal activity was calculated.
as §1
To evaluate the hypokinetic (sedative) effects of drugs, “open field” (OF) test was applied. In the OF test, the locomotive activity of rats is determined. Animals were placed in the center of square of the illuminated field (1 meter×1 meter) for 3 minutes and the mobility time was recorded in seconds (horizontal activity). […] To quantify the locomotive activity for each dose of test drug(s), an average horizontal activity was calculated.
Tail-Flick and Open Field Tests were Conducted as Detailed Above.
as §1

[2] = test system: male Wistar rats; assay: Opioid hyperalgesia in tail and paw withdrawal tests (% rats)

CC12CC3CC(C)(C1)CC(N)(C3)C2 [Memantine, memantine]
0 % rats: Hyperkinesia or sedation ([1]; unmarked cells, doses as E6) | Hyperkinesia or sedataion ([1]; unmarked cells, doses as E12) | Hyperkinesia ([1]; unmarked cells, doses as E48) | Hyperkinesia ([1]; unmarked cells, doses as E54) | Hyperalgesia ([2]; doses as E6) | Hyperalgesia ([2]; doses as E12) | Hyperalgesia ([2]; doses as E48) | Hyperalgesia ([2]; doses as E54)
0 % of Rats: Sedation ([1]; I.M., doses by row as E3)
